C[n+]1ccn(CCOCCOCCn2cc[n+](C)c2)c1.F[P-](F)(F)(F)(F)F.F[P-](F)(F)(F)(F)F
solubility (mole fraction)
Conditions | 283 K | 288 K | 293 K | 298 K | 303 K | 308 K
in DMF | 0.098 | 0.101 | 0.105 | 0.109 | 0.113 | –
in DMSO | – | – | 0.106 | 0.119 | 0.131 | 0.14
in ethanol | 3.3e-05 | 4e-05 | 4.7e-05 | 5.7e-05 | 7.2e-05 | –
in methanol | 0.000198 | 0.000231 | 0.000285 | 0.000369 | 0.000502 | –
in water | 0.00015 | 0.000197 | 0.000257 | 0.000334 | 0.00043 | –
